Laboratory results reported in ChEMBL document CHEMBL4507269, “Data for DCP probe BAY-386” (2021).

Experiments:
[1] = target: Glutamate receptor ionotropic, kainate (Rattus norvegicus) (UniProt P22756+Q01812+P42260+P42264+Q63273); assay: Inhibition of Glutamate, Kainate at 10 µM in the Eurofins-Panlabs radioligand binding assay (Eurofins_assay_232700); settings: Compound concentration 10.0 uM
Rattus norvegicus = species on record: Rattus norvegicus; assay: Inhibition of Glutamate, NMDA, Phencyclidine at 10 µM in the Eurofins-Panlabs radioligand binding assay (Eurofins_assay_233000); assay type: protein-complex assay; settings: Compound concentration 10.0 uM
[2] = target: Cysteinyl leukotriene receptor 1 (Homo sapiens) (UniProt Q9Y271); assay: Inhibition of Leukotriene, Cysteinyl CysLT1 at 10 µM in the Eurofins-Panlabs radioligand binding assay (Eurofins_assay_250460); design: ligand concentration 0.3 nM, non-specific ligand with concentration 0.3 µM Leukotriene D4, incubation time 30 min, incubation temperature 25 °C; settings: Compound concentration 10.0 uM
[3] = target: Acetylcholine receptor subunit alpha (Homo sapiens) (UniProt P02708); assay: Inhibition of Nicotinic Acetylcholine […], Bungarotoxin at 10 µM in the Eurofins-Panlabs radioligand binding assay (Eurofins_assay_258700); settings: Compound concentration 10.0 uM
Mus musculus = species on record: Mus musculus; assay: Inhibition of Phorbol Ester at 10 µM in the Eurofins-Panlabs radioligand binding assay (Eurofins_assay_264500); design: ligand concentration 3 nM; settings: Compound concentration 10.0 uM
[4] = target: T1, Alpha-2A adrenergic receptor (Homo sapiens) (UniProt P08913); assay: Adrenergic alpha2A Eurofins-Panlabs radioligand binding assay; design: ligand concentration 1 nM, non-specific ligand with concentration 10 µM WB-4101, incubation time 60 min, incubation temperature 25 °C; settings: Compound concentration 10.0 uM
T1 sequence (whole entry): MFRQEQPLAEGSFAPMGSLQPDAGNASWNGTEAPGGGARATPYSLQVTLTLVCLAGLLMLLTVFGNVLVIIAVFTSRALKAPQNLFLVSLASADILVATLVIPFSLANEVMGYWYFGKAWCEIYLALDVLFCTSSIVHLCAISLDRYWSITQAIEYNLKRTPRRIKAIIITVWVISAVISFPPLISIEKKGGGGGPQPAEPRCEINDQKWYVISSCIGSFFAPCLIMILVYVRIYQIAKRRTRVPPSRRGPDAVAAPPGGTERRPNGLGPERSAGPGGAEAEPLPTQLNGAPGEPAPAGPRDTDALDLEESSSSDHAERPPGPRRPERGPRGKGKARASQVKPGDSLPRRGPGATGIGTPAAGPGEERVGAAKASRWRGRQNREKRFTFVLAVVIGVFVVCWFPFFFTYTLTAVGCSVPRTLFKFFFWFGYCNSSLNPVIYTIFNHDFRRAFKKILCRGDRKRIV

[5] = target: Proteinase-activated receptor 4 (Homo sapiens, UniProt Q96RI0); assay: Functional cellular assay (HEK cells) (F2RL3)
Platelet [6] = assay: Inhibition of platelet aggregation (human plasma, TRAP-6) (IC90)
[7] = target: Kappa-type opioid receptor (Homo sapiens) (UniProt P41145); assay: kappa(KOP) (h) Eurofins-Cerep Cellular and Nuclear Receptor Functional Assays; settings: Compound concentration 10.0 uM
[8] = target: Substance-P receptor (Homo sapiens) (UniProt P25103); assay: Tachykinin NK1 Eurofins-Panlabs radioligand binding assay; settings: Compound concentration 10.0 uM
[9] = system: Tyrosine-protein kinase ABL1 (Homo sapiens), P00519 [Y253F]; settings: Compound concentration 1000.0 nM
[10] = target: Tyrosine-protein kinase receptor UFO (Homo sapiens) (UniProt P30530); settings: Compound concentration 1000.0 nM
[11] = target: Cyclin-dependent kinase 4 (Homo sapiens) (UniProt P11802); settings: Compound concentration 1000.0 nM
[12] = system: Epidermal growth factor receptor (Homo sapiens), P00533 [G719S]; settings: Compound concentration 1000.0 nM
[13] = target: Mitogen-activated protein kinase kinase kinase kinase 3 (Homo sapiens) (UniProt Q8IVH8); settings: Compound concentration 1000.0 nM
[14] = target: 5-hydroxytryptamine receptor 5A (Homo sapiens) (UniProt P47898); settings: Compound concentration 10.0 uM
[15] = target: T2, Adenosine receptor A3 (Homo sapiens) (UniProt P0DMS8); settings: Compound concentration 10.0 uM
T2 sequence (whole entry): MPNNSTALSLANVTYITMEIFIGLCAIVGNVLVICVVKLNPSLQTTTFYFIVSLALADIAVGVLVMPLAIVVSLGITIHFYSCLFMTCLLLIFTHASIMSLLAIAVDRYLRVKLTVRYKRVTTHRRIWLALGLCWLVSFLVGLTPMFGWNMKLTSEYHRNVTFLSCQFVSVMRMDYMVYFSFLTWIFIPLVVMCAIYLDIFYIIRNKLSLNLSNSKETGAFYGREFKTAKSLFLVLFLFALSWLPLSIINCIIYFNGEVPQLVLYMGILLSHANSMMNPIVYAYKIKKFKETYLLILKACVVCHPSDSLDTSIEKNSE

[16] = target: Estrogen receptor (Homo sapiens) (UniProt P03372); settings: Compound concentration 10.0 uM
[17] = target: T3, Muscarinic acetylcholine receptor M1 (Homo sapiens) (UniProt P11229); settings: Compound concentration 10.0 uM
T3 sequence (whole entry): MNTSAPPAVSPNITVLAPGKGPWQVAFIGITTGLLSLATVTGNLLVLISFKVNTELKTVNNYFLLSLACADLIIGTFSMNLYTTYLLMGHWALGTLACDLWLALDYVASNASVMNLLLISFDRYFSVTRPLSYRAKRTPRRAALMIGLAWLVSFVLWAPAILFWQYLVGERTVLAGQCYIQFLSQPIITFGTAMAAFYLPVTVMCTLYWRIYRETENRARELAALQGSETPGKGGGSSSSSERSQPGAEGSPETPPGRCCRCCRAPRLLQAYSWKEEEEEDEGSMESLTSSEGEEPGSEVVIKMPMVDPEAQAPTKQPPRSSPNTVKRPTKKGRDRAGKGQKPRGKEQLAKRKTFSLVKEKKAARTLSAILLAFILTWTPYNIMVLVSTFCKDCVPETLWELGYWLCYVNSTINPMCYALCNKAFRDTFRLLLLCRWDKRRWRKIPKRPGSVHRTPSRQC

Platelet [18] = assay: Inhibition of platelet aggregation (human plasma, TRAP-6); assay type: cell-based
[19] = target: T4, Muscarinic acetylcholine receptor M4 (Homo sapiens) (UniProt P08173); settings: Compound concentration 10.0 uM
T4 sequence (whole entry): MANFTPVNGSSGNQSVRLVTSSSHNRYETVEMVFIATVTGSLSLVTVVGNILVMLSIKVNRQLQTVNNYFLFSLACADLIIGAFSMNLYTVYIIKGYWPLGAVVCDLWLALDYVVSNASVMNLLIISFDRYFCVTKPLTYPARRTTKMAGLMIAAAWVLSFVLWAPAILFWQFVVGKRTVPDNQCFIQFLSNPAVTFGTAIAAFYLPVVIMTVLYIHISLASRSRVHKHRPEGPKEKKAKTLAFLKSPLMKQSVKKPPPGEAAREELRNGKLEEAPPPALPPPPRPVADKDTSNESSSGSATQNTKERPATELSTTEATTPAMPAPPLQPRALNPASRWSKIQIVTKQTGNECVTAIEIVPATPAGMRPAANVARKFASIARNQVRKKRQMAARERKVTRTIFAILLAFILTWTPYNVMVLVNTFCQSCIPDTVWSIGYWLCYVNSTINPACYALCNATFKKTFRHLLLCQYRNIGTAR

Chain of Proteinase-activated receptor 4 (Q96RI0 whole entry): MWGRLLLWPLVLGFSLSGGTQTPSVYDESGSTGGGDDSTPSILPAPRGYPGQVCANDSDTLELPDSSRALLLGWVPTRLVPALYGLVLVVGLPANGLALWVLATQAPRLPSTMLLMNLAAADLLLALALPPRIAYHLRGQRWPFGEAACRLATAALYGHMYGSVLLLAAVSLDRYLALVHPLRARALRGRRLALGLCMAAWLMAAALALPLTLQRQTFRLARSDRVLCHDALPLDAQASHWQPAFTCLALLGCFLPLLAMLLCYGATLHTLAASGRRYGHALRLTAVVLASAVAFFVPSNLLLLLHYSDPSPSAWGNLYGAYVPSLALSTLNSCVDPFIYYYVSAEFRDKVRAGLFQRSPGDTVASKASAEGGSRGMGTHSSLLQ
Chain of Cyclin-dependent kinase 4 (Homo sapiens) (P11802 whole entry): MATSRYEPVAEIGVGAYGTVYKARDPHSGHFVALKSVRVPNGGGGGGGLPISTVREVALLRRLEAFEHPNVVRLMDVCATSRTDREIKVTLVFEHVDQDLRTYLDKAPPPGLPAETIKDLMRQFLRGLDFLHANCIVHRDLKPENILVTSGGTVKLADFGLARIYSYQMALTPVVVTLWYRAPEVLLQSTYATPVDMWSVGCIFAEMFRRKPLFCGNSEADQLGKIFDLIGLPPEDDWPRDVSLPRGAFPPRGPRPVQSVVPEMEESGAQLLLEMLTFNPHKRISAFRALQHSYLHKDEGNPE
Chain of Tyrosine-protein kinase receptor UFO (Homo sapiens) (P30530 whole entry): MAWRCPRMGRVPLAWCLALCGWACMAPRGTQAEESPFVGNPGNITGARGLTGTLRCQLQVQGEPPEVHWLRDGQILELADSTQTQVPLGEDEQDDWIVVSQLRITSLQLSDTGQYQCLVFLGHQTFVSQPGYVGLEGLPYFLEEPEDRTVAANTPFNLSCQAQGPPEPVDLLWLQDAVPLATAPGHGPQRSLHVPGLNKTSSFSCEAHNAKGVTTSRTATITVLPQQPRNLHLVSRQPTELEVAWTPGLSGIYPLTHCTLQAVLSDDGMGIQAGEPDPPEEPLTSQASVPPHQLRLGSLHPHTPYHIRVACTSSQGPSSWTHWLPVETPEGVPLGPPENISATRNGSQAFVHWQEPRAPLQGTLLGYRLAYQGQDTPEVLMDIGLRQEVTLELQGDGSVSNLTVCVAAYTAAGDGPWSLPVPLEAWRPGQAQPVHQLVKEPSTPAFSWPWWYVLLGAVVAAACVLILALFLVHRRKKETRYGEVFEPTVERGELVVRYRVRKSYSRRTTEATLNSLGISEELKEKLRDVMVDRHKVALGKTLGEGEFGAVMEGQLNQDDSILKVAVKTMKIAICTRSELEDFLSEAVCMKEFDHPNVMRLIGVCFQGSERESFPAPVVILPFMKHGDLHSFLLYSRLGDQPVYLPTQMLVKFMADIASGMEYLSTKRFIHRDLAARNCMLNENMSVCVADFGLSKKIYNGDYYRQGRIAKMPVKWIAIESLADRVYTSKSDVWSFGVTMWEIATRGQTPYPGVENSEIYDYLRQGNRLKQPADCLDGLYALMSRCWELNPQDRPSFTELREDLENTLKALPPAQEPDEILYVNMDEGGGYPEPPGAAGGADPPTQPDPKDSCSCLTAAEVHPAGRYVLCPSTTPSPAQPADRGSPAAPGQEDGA
Chain of Kappa-type opioid receptor (Homo sapiens) (P41145 whole entry): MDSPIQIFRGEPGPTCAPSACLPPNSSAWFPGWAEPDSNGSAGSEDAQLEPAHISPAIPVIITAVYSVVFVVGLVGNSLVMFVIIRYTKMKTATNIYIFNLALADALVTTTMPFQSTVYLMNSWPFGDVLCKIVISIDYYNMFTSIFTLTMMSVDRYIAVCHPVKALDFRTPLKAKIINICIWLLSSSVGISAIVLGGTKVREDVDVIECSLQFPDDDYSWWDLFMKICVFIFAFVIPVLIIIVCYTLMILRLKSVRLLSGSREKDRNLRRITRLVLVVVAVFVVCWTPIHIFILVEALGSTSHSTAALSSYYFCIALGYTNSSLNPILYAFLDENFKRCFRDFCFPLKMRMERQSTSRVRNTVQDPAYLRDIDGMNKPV
Chain of Mitogen-activated protein kinase kinase kinase kinase 3 (Homo sapiens) (Q8IVH8 whole entry): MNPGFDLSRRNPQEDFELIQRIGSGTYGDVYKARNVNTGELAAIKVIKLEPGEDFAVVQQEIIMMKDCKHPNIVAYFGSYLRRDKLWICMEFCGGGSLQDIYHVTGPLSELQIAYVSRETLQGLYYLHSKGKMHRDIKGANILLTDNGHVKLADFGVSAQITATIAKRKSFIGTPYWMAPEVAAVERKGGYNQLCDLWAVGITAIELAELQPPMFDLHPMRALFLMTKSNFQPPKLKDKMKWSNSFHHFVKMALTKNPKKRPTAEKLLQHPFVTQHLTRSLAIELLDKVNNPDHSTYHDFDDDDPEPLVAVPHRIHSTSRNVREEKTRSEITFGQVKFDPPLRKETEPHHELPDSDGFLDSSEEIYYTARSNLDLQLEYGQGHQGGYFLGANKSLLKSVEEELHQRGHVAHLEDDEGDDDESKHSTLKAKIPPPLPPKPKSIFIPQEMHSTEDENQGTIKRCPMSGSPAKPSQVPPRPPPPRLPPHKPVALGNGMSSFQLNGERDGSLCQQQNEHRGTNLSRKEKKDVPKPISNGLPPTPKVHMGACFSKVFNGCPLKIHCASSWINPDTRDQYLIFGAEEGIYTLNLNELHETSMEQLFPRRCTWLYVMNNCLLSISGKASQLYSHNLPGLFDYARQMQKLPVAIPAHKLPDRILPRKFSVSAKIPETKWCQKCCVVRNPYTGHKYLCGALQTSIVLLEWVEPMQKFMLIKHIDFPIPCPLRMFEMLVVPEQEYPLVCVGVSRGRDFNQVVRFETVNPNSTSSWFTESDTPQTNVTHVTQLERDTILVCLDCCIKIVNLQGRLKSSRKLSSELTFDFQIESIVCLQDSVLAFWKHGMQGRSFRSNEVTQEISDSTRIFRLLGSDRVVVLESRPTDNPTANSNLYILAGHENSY
Chain of Substance-P receptor (Homo sapiens) (P25103 whole entry): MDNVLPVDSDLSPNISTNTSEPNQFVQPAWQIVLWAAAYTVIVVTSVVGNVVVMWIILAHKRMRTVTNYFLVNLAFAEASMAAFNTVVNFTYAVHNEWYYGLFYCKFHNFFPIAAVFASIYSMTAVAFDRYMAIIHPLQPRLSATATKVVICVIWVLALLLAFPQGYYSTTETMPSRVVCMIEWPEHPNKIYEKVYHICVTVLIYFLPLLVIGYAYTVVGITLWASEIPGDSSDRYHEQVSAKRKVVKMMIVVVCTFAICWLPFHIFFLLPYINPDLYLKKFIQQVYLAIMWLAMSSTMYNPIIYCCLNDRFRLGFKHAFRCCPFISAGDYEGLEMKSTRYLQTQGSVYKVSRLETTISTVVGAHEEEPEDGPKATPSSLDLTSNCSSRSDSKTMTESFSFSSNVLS
Chain of Estrogen receptor (Homo sapiens) (P03372 whole entry): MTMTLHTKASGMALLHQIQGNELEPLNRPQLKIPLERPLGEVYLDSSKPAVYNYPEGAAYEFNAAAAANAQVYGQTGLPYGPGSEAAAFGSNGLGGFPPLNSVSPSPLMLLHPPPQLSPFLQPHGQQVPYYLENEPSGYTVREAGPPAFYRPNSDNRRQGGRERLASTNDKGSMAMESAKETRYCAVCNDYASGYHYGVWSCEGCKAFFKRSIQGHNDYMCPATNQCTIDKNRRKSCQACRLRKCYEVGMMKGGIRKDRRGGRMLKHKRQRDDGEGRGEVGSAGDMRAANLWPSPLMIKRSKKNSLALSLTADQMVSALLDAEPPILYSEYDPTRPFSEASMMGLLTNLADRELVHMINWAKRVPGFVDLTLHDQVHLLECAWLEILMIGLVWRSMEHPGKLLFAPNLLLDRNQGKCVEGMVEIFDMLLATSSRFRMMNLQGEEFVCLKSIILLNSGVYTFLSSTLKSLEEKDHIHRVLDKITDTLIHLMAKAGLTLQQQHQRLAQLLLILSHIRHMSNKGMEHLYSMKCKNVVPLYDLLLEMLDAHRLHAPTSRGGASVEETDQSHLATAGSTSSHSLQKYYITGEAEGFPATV
Chain of 5-hydroxytryptamine receptor 5A (Homo sapiens) (P47898 whole entry): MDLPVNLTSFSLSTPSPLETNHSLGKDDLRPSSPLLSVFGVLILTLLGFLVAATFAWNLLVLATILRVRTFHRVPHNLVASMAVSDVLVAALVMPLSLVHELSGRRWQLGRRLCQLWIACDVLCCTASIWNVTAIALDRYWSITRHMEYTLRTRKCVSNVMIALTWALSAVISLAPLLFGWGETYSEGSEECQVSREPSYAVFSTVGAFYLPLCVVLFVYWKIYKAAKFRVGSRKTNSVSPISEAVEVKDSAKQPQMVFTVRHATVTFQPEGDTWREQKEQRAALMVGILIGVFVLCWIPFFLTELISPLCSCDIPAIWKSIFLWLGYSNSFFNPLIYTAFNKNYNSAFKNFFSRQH
Chain of Acetylcholine receptor subunit alpha (Homo sapiens) (P02708 whole entry): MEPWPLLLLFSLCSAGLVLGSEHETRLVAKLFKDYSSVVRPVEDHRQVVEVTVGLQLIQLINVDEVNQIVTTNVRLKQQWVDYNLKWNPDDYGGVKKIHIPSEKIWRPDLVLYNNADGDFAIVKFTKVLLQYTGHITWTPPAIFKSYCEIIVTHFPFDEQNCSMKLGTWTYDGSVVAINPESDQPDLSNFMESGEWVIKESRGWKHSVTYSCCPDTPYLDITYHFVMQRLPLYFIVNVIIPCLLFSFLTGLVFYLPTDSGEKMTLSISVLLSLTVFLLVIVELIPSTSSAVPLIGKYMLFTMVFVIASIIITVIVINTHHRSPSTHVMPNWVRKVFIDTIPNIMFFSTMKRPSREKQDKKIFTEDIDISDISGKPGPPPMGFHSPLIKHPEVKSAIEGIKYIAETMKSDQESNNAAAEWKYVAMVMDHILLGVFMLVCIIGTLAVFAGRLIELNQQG

**Q.** For `O=C(N1CCS(=O)(=O)CC1)N1C[C@H](c2ccc(OC(F)(F)F)cc2)C[C@H](c2nc(C3CC3)no2)C1` [BAY-386], which inhibition [1] is on record?
**A.** Its inhibition is 15%.

**Q.** And the inhibition (Rattus norvegicus)?
**A.** The inhibition was 0%.

**Q.** What about the inhibition [2] of the same compound?
**A.** Its inhibition is 1%.

**Q.** What about the inhibition [3] of the same compound?
**A.** The inhibition was -2%.

**Q.** What about the inhibition (Mus musculus) of the same compound?
**A.** Its inhibition is 5%.

**Q.** What about the inhibition [4] of the same compound?
**A.** Its inhibition is 8%.

**Q.** What about the IC50 [5] of the same compound?
**A.** The IC50 was > 10 µM (not active).

**Q.** What about the IC90 (Platelet [6]) of the same compound?
**A.** Its IC90 is 0.68 µM.

**Q.** And the % Inhibition of Control Agonist Response (Mean n=2) [7]?
**A.** Its % Inhibition of Control Agonist Response (Mean n=2) is 4.5%.

**Q.** And the % of Control Agonist Response (Mean n=2) [7]?
**A.** Its % of Control Agonist Response (Mean n=2) is 20.6%.

**Q.** What about the inhibition [8] of the same compound?
**A.** Its inhibition is -2%.

**Q.** What about the residual activity [9] of the same compound?
**A.** The residual activity was 100%.

**Q.** And the residual activity [10]?
**A.** The residual activity was 100%.

**Q.** What about the residual activity [11] of the same compound?
**A.** Its residual activity is 88%.

**Q.** And the residual activity [12]?
**A.** Its residual activity is 99%.

**Q.** And the residual activity [13]?
**A.** Its residual activity is 100%.

**Q.** And the inhibition [14]?
**A.** The inhibition was 10%.

**Q.** And the inhibition [15]?
**A.** The inhibition was 12%.

**Q.** What about the inhibition [16] of the same compound?
**A.** Its inhibition is -1%.

**Q.** And the inhibition [17]?
**A.** The inhibition was -3%.

**Q.** With `Cc1noc([C@H]2C[C@@H](c3ccc(C(F)(F)F)cc3)CN(C(=O)N3CCS(=O)(=O)C3)C2)n1` [BAY-448] as the compound, how does the IC50 [5] read?
**A.** The IC50 was > 5 µM (not active).

**Q.** And the IC50 (Platelet [18])?
**A.** The IC50 was > 10 µM (not active).

**Q.** And the residual activity [9]?
**A.** Its residual activity is 100%.

**Q.** What about the residual activity [10] of the same compound?
**A.** The residual activity was 100%.

**Q.** And the residual activity [11]?
**A.** The residual activity was 100%.

**Q.** And the residual activity [12]?
**A.** Its residual activity is 100%.

**Q.** What about the residual activity [13] of the same compound?
**A.** The residual activity was 100%.

**Q.** And the inhibition [19]?
**A.** Its inhibition is -0.58%.
